Assay results: patent US20040048870A1, “Composition for the prevention and treatment of migraine headaches” (priority 2002, published 2004)

How the values were obtained:
migraine headaches = assay: patient history of earlier medication (headache questionnaire prior to institution of therapy); assay type: in vivo, human; details: before therapy; for relief of acute pain by abortive agent: Example 1 patient; for success and side effects of earlier medication: Example 2 patient
Text: There were no accompanying autonomic symptoms. […] The patient was not exposed to xanthines.

migraine [1] = details: 400 mg oral riboflavin once a day; at four months; cited from earlier work
[2] = system: headaches in patients with low serum levels of ionized magnesium; details: intravenous infusion of one gram of magnesium; cited from earlier work
migraine [3] = details: 600 mg magnesium orally versus placebo; cited from earlier work

CC(=O)Nc1ccc(O)cc1 [acetaminophen]
relief of acute pain by abortive agent (migraine headaches): some, but incomplete, relief

CNS(=O)(=O)Cc1ccc2[nH]cc(CCN(C)C)c2c1 [Imitrex]
success and side effects of earlier medication (migraine headaches): varying success with varying side effects

Cc1cc2nc3c(=O)[nH]c(=O)nc-3n(C[C@H](O)[C@H](O)[C@H](O)CO)c2cc1C [riboflavin, Riboflavin]
number of days the patients experienced migraine attacks (migraine [1]): statistically significant decrease

CCOC(=O)C1(c2ccccc2)CCN(C)CC1 [Demerol]
success and side effects of earlier medication (migraine headaches): varying success with varying side effects

CC(C)Cc1ccc(C(C)C(=O)O)cc1 (stereo not shown) [ibuprofen]
relief of acute pain by abortive agent (migraine headaches): some, but incomplete, relief

CC(=O)Oc1ccccc1C(=O)O [aspirin]
relief of acute pain by abortive agent (migraine headaches): some, but incomplete, relief

[Mg+2] [magnesium]
headache relief [2]: relieved headaches
duration of the attacks (migraine [3]): decreased in the magnesium group, but not significantly
frequency of attacks (migraine [3]): significant reduction
intensity of the attacks (migraine [3]): decreased in the magnesium group, but not significantly
